Values after ≈ are worked out from the molar mass of the structure shown.
Experiments:
Assay in all cases: Bacterial growth minimal inhibitory concentration (CLSI broth microdilution)
Assay type in all cases: cell-based
[1] = test system: E. coli ATCC25922; conditions: Escherichia coli, ATCC25922; quinolone-sensitive strain; cation-adjusted Mueller-Hinton Broth
Description: (§1) Minimal Inhibitory Concentrations (MICs; mg/L) were determined in cation-adjusted Mueller-Hinton Broth by a microdilution method following the description given in “Methods for Dilution Antimicrobial Susceptibility Tests for Bacteria that Grow Aerobically”, Approved standard, 7th ed., Clinical and Laboratory Standards Institute (CLSI) Document M7-A7, Wayne, Pa., USA (2006).
(§2) All Reference Example compounds were tested against several Gram-negative bacteria. K. pneumoniae A-651 is a multiply resistant strain (in particular quinolone-resistant), while E. coli ATCC25922 and P. aeruginosa ATCC27853 are quinolone-sensitive strains. The corresponding antibacterial test results are given in Table 1 hereafter (MICs in mg/L).

[2] = test system: K. pneumoniae A-651; conditions: Klebsiella pneumoniae, A651; multiply resistant strain (in particular quinolone-resistant); cation-adjusted Mueller-Hinton Broth
Description: as §1, §2

[3] = test system: P. aeruginosa ATCC27853; conditions: Pseudomonas aeruginosa, ATCC27853; quinolone-sensitive strain; cation-adjusted Mueller-Hinton Broth
Description: as §1, §2

MIC [1] [µg/mL]	MIC [2] [µg/mL]	MIC [3] [µg/mL]	SMILES
0.063 (≈ 0.136 µM)	0.5 (≈ 1.08 µM)	0.5 (≈ 1.08 µM)	C[C@@](CCN1Cc2cc(C#CC#CC3CN(CCF)C3)cn2C1=O)(C(=O)NO)S(C)(=O)=O [Example 61, (2R)-4-(6-((1-(2-fluoroethyl)azetidin-3-yl)buta-1,3-diyn-1-yl)-3-oxo-1H-pyrrolo[1,2-c]imidazol-2(3H)-yl)-N-hydroxy-2-methyl-2-(methylsulfonyl)butanamide]
0.25 (≈ 0.539 µM)	1 (≈ 2.16 µM)	0.5 (≈ 1.08 µM)	C[C@@](CCN1Cc2cc(C#CC#C[C@H]3C[C@@H]3[C@@H](O)CO)cn2C1=O)(C(=O)NO)S(C)(=O)=O [Example 56, (2R)-4-(6-(((1S,2S)-2-((R)-1,2-dihydroxyethyl)cyclopropyl)buta-1,3-diyn-1-yl)-3-oxo-1H-pyrrolo[1,2-c]imidazol-2(3H)-yl)-N-hydroxy-2-methyl-2-(methylsulfonyl)butanamide]
< 0.063	0.125 (≈ 0.249 µM)	1 (≈ 1.99 µM)	C[C@@](CCN1Cc2cc(C#Cc3ccc(CN4CC(F)C4)cc3)cn2C1=O)(C(=O)NO)S(C)(=O)=O [Example 49, (2R)-4-(6-((4-((3-fluoroazetidin-1-yl)methyl)phenyl)ethynyl)-3-oxo-1H-pyrrolo[1,2-c]imidazol-2(3H)-yl)-N-hydroxy-2-methyl-2-(methylsulfonyl)butanamide]
8 (≈ 15.8 µM)	4 (≈ 7.91 µM)	4 (≈ 7.91 µM)	CN1CC(OC(=O)NCC#CC#Cc2cc3n(c2)C(=O)N(CC[C@](C)(C(=O)NO)S(C)(=O)=O)C3)C1 [Example 39, 1-methylazetidin-3-yl (3R)-(5-(2-(4-(hydroxyamino)-3-methyl-3-(methylsulfonyl)-4-oxobutyl)-3-oxo-2,3-dihydro-1H-pyrrolo[1,2-c]imidazol-6-yl)penta-2,4-diyn-1-yl)carbamate]
0.25 (≈ 0.512 µM)	0.5 (≈ 1.02 µM)	0.5 (≈ 1.02 µM)	C[C@@](CCN1Cc2cc(C#CC#CC3CN(C4CC(O)C4)C3)cn2C1=O)(C(=O)NO)S(C)(=O)=O (stereo partly drawn) [Example 69, (2R)—N-hydroxy-4-(6-((1-(3-hydroxycyclobutyl)azetidin-3-yl)buta-1,3-diyn-1-yl)-3-oxo-1H-pyrrolo[1,2-c]imidazol-2(3H)-yl)-2-methyl-2-(methylsulfonyl)butanamide]
2	2	4	CN1CCC(C)(C#CC#Cc2cc3n(c2)C(=O)N(CC[C@](C)(C(=O)NO)S(C)(=O)=O)C3)C1 (mixture of isomers) [Example 82, (2R)-4-(6-(((3RS)-1,3-dimethylpyrrolidin-3-yl)buta-1,3-diyn-1-yl)-3-oxo-1H-pyrrolo[1,2-c]imidazol-2(3H)-yl)-N-hydroxy-2-methyl-2-(methylsulfonyl)butanamide]
0.125 (≈ 0.233 µM)	0.5 (≈ 0.93 µM)	1 (≈ 1.86 µM)	C[C@@](CCN1Cc2cc(C#Cc3ccc(OCCS(C)(=O)=O)cc3)cn2C1=O)(C(=O)NO)S(C)(=O)=O [Example 25, (2R)—N-hydroxy-2-methyl-2-(methylsulfonyl)-4-(6-((4-(2-(methylsulfonyl)ethoxy)phenyl)ethynyl)-3-oxo-1H-pyrrolo[1,2-c]imidazol-2(3H)-yl)butanamide]
0.5 (≈ 1.04 µM)	1 (≈ 2.09 µM)	1 (≈ 2.09 µM)	CN1CCC(F)(C#CC#Cc2cc3n(c2)C(=O)N(CC[C@](C)(C(=O)NO)S(C)(=O)=O)C3)CC1 [Example 46, (2R)-4-(6-((4-fluoro-1-methylpiperidin-4-yl)buta-1,3-diyn-1-yl)-3-oxo-1H-pyrrolo[1,2-c]imidazol-2(3H)-yl)-N-hydroxy-2-methyl-2-(methylsulfonyl)butanamide]
4	4	4	C[C@@](CCN1Cc2cc(C#CC#C[C@@H]3C[C@H](F)CN3)cn2C1=O)(C(=O)NO)S(C)(=O)=O.Cl [Example 53, (2R)-4-(6-(((2S,4S)-4-fluoropyrrolidin-2-yl)buta-1,3-diyn-1-yl)-3-oxo-1H-pyrrolo[1,2-c]imidazol-2(3H)-yl)-N-hydroxy-2-methyl-2-(methylsulfonyl)butanamide hydrochloride]
1 (≈ 1.91 µM)	2 (≈ 3.83 µM)	4 (≈ 7.65 µM)	C[C@@](CCN1Cc2cc(C#CC#CC3CN(C4CS(=O)(=O)C4)C3)cn2C1=O)(C(=O)NO)S(C)(=O)=O [Example 63, (2R)-4-(6-((1-(1,1-dioxidothietan-3-yl)azetidin-3-yl)buta-1,3-diyn-1-yl)-3-oxo-1H-pyrrolo[1,2-c]imidazol-2(3H)-yl)-N-hydroxy-2-methyl-2-(methylsulfonyl)butanamide]
1 (≈ 2.16 µM)	1 (≈ 2.16 µM)	0.5 (≈ 1.08 µM)	CN1C[C@@H](C#CC#Cc2cc3n(c2)C(=O)N(CC[C@](C)(C(=O)NO)S(C)(=O)=O)C3)[C@@H]1CO [Example 95, (2R)—N-hydroxy-4-(6-(((2R,3R)-2-(hydroxymethyl)-1-methylazetidin-3-yl)buta-1,3-diyn-1-yl)-3-oxo-1H-pyrrolo[1,2-c]imidazol-2(3H)-yl)-2-methyl-2-(methylsulfonyl)butanamide]
0.25 (≈ 0.56 µM)	0.5 (≈ 1.12 µM)	0.25 (≈ 0.56 µM)	C[C@@H]1[C@@H](C#CC#Cc2cc3n(c2)C(=O)N(CC[C@](C)(C(=O)NO)S(C)(=O)=O)C3)CN1C [Example 93, (2R)-4-(6-(((2R,3S)-1,2-dimethylazetidin-3-yl)buta-1,3-diyn-1-yl)-3-oxo-1H-pyrrolo[1,2-c]imidazol-2(3H)-yl)-N-hydroxy-2-methyl-2-(methylsulfonyl)butanamide]
2 (≈ 4.58 µM)	4 (≈ 9.16 µM)	2 (≈ 4.58 µM)	C[C@@](CCN1Cc2cc(C#CC#CC3(F)CNC3)cn2C1=O)(C(=O)NO)S(C)(=O)=O [Example 18, (2R)-4-(6-((3-fluoroazetidin-3-yl)buta-1,3-diyn-1-yl)-3-oxo-1H-pyrrolo[1,2-c]imidazol-2(3H)-yl)-N-hydroxy-2-methyl-2-(methylsulfonyl)butanamide]
0.125	0.25	2	C[C@@](CCN1Cc2cc(C#CC#CC3(F)CCN(C4CC4)C3)cn2C1=O)(C(=O)NO)S(C)(=O)=O (mixture of isomers) [Example 76, (2R)-4-(6-(((3RS)-1-cyclopropyl-3-fluoropyrrolidin-3-yl)buta-1,3-diyn-1-yl)-3-oxo-1H-pyrrolo[1,2-c]imidazol-2(3H)-yl)-N-hydroxy-2-methyl-2-(methylsulfonyl)butanamide]
2 (≈ 3.8 µM)	2 (≈ 3.8 µM)	2 (≈ 3.8 µM)	C[C@@](CCN1Cc2cc(C#Cc3ccc(CN4CC5C(N)C5C4)cc3)cn2C1=O)(C(=O)NO)S(C)(=O)=O (stereo partly drawn) [Example 4, (2R)-4-(6-((4-((6-amino-3-azabicyclo[3.1.0]hexan-3-yl)methyl)phenyl)ethynyl)-3-oxo-1H-pyrrolo[1,2-c]imidazol-2(3H)-yl)-N-hydroxy-2-methyl-2-(methylsulfonyl)butanamide]
0.063 (≈ 0.128 µM)	0.125 (≈ 0.255 µM)	2 (≈ 4.08 µM)	C[C@@](CCN1Cc2cc(C#CC#CC3CN(C4CSC4)C3)cn2C1=O)(C(=O)NO)S(C)(=O)=O [Example 75, (2R)—N-hydroxy-2-methyl-2-(methylsulfonyl)-4-(3-oxo-6-((1-(thietan-3-yl)azetidin-3-yl)buta-1,3-diyn-1-yl)-1H-pyrrolo[1,2-c]imidazol-2(3H)-yl)butanamide]
1 (≈ 1.88 µM)	4 (≈ 7.51 µM)	4 (≈ 7.51 µM)	C[C@@](CCN1Cc2cc(C#CC#CC3(COC(=O)N4CC(O)C4)CC3)cn2C1=O)(C(=O)NO)S(C)(=O)=O [Example 22, (3R)-(1-((2-(4-(hydroxyamino)-3-methyl-3-(methylsulfonyl)-4-oxobutyl)-3-oxo-2,3-dihydro-1H-pyrrolo[1,2-c]imidazol-6-yl)buta-1,3-diyn-1-yl)cyclopropyl)methyl 3-hydroxyazetidine-1-carboxylate]
1 (≈ 2.03 µM)	4 (≈ 8.12 µM)	1 (≈ 2.03 µM)	C[C@@](CCN1Cc2cc(C#CC#CC3CN(C[C@@H](O)CO)C3)cn2C1=O)(C(=O)NO)S(C)(=O)=O [Example 51, (2R)-4-(6-((1-((R)-2,3-dihydroxypropyl)azetidin-3-yl)buta-1,3-diyn-1-yl)-3-oxo-1H-pyrrolo[1,2-c]imidazol-2(3H)-yl)-N-hydroxy-2-methyl-2-(methylsulfonyl)butanamide]
0.5	1	1	C[C@@](CCN1Cc2cc(C#CC#CC3(F)CCN(CCO)C3)cn2C1=O)(C(=O)NO)S(C)(=O)=O (mixture of isomers) [Example 77, (2R)-4-(6-(((3RS)-3-fluoro-1-(2-hydroxyethyl)pyrrolidin-3-yl)buta-1,3-diyn-1-yl)-3-oxo-1H-pyrrolo[1,2-c]imidazol-2(3H)-yl)-N-hydroxy-2-methyl-2-(methylsulfonyl)butanamide]
1	2	4	C[C@@](CCN1Cc2cc(C#Cc3ccc(CN4CC(CO)OC4=O)cc3)cn2C1=O)(C(=O)NO)S(C)(=O)=O (mixture of isomers) [Example 12, (2R)—N-hydroxy-4-(6-((4-((RS)-(5-(hydroxymethyl)-2-oxooxazolidin-3-yl)methyl)phenyl)ethynyl)-3-oxo-1H-pyrrolo[1,2-c]imidazol-2(3H)-yl)-2-methyl-2-(methylsulfonyl)butanamide]
1	1	1	C[C@@](CCN1Cc2cc(C#CC#CC3(F)CCNC3)cn2C1=O)(C(=O)NO)S(C)(=O)=O (mixture of isomers) [Example 78, (2R)-4-(6-(((3RS)-3-fluoropyrrolidin-3-yl)buta-1,3-diyn-1-yl)-3-oxo-1H-pyrrolo[1,2-c]imidazol-2(3H)-yl)-N-hydroxy-2-methyl-2-(methylsulfonyl)butanamide]
